The values that follow come from paper PMC7662321, “Andrographolide and Its 14-Aryloxy Analogues Inhibit Zika and Dengue Virus Infection” (Molecules, 2020).

A short description of data set [1]: MTT cytotoxicity assay in HEK293T/17 cells. The data set is classed as cell-based. The note with it: human, HEK293T/17 cells (human embryonic kidney), 24 h post-treatment. How it is done: (§1) Cytotoxicity of each compound towards cells for four selected cell lines in the range of 1 to 500 µM was evaluated using the MTT (3-(4,5-dimethylthiazol-2-yl)-2,5-diphenyltetrazolium bromide) assay at 24 h post-treatment, in parallel with control and vehicle-treated cells (0.1% dimethyl sulfoxide (DMSO)). The 50% cytotoxic concentration (CC50) values calculated from the dose-response curve (Supplementary Figures S2–S5) are shown in Table 1. Overall, a range of cytotoxicities were seen from the four compounds across the […]. The most cytotoxic combination was ZAD-1 and BHK-21 cells, while the least cytotoxic combination was andrographolide and BHK-21 cells (Table 1).
(§2) A549 cells were cultured in ninety-six-well tissue culture plates under standard conditions until the cells reached 90% confluence. The cell culture medium was removed and then cells were incubated with various concentrations of andrographolide (1–100 μM) diluted in complete medium with FBS prior to being cultured for 24 h under standard conditions before analysis using either the Vybrant MTT Cell proliferation assay kit (V13154, Invitrogen) or the alamarBlue (Thermo Fischer Scientific, Waltham, MA, USA) assay kit according to the manufacturers recommendations. Values were determined from 8 (MTT assay) or 3 (alamarBlue) independent replicates. Negative controls (only media and media with 0.1% DMSO) and positive controls (5% DMSO) were included. To determine cell number, cell cultures were trypsinized by the addition of 0.25% Trypsin/0.1% ethylelediaminetetraacetic acid (EDTA) for 3 min and then cell suspensions were diluted with 0.4% trypan blue solution. Cells were counted using a hemocytometer. Cell morphology was additionally observed under an inverted microscope after 24 h treatment with various concentrations of each compound.
Figu re S5. Cytotoxicity of ZAD -1 (A), ZA D-2 (B), ZA D-3 (C), and andro grapholide (D) to HEK293T/17 (human embryonic kidney) cells.
HEK293T/17 cells were incubated with various concentrations of each compound for 24 hrs followed by MTT cell viability assay. The experiment was undertaken independently in 4 replicates. DMSO at the same concentrations was used as a control.
10% ethanol, PBS, and milli- Q water were used as a positive control of cell death. […]

A short description of data set [2]: MTT cytotoxicity assay in Vero cells. Conditions: African green monkey, Vero cells (monkey kidney), 24 h post-treatment. The data set is classed as cell-based. The method, then:
as §1, §2
Figu re S3. Cytotoxicity of ZAD -1 (A), ZA D-2 (B), ZA D-3 (C), and andro grapholide (D) to Ve r o (monkey kidney) cells. Ve r o cells were incubated with various concentrations of each compound for 24 hrs followed by MTT cell viability assay. The experiment was undertaken independently in 4 replicates. DMSO at the same concentrations was used as a control. 10% ethanol, PBS, and milli- Q water were used as a positive control of cell death. The bars show mean ± SD. […]

Data set [3] can be described thus: MTT cytotoxicity assay in BHK-21 cells. The class given is cell-based. Conditions: hamster, BHK-21 cells (baby hamster kidney), 24 h post-treatment. How it is done:
as §1, §2
Figu re S2. Cytotoxicity of ZAD -1 (A), ZA D-2 (B), ZA D-3 (C), and andro grapholide (D) to BHK- 21 (baby hamster kidney) cells. BHK- 21 cells were incubated with various concentrations of each compound for 24 hrs followed by MTT cell viability assay. The experiment was undertaken independently in 4 replicates.
(§3) DMSO at the same concentrations was used as a control. 10% ethanol, PBS, and milli- Q water were used as a positive control of cell death. The bars show mean ± SD. […]

Data set [4] can be described thus: MTT cytotoxicity assay in A549 cells. The class given is cell-based. Conditions: human, A549 cells (human lung carcinoma), 24 h post-treatment. How it is done:
as §1, §2
Figu re S4. Cytotoxicity of ZAD -1 (A), ZA D-2 (B), ZA D-3 (C), and andro grapholide (D) to A549 (human lung carcinoma) cells. A549 cells were incubated with various concentrations of each compound for 24 hrs followed by MTT cell viability assay. The experiment was undertaken independently in 4 replicates.
as §3

Another data set has as its system ZIKV. As to the kind of experiment: Percentage of ZIKV infection of A549 cells by flow cytometry. The data set is classed as cell-based, Zika virus. Conditions: A549, MOI 5, 10 and 25 µM, 24 h, vs vehicle. How it is done:
To confirm the effects of andrographolide and the andrographolide analogues on ZIKV infection, A549 cells were infected with ZIKV at MOI of 5 for 2 h, and subsequently treated with the compounds at concentrations of 10 and 25 μM or with vehicle for 24 h. The cells were harvested for determination of the percentage of infection by flow cytometry, while the supernatants were collected for determination of viral titer by standard plaque assay.
HEK293T/17 or A549 cells were cultured in six-well plates under standard conditions until the cells reached 80% confluence. HEK293T/17 cells were infected with DENV 2, while A549 cells were infected with ZIKV Thai strain at MOI 5 for 2 h at 37 °C and 5% CO2 in culture medium without FBS. Mock infection was undertaken in parallel. After the infection period, the medium was removed and replaced with complete medium (including FBS) containing 0.1% DMSO (no treatment control) or the appropriate concentration of each compound and cells were again incubated under standard conditions. At 24 h post-treatment, cells were harvested for determination of effects of compounds on percentage of infection and supernatant was collected for determination of viral productivity. All experiments were undertaken independently in triplicate with duplicate plaque assay.
Mock- or viral-infected cells (with or without compound treatment) were harvested at an appropriate time point then incubated with 10% normal goat serum (NGS; Gibco Invitrogen) in PBS-immunofluorescence assay (IFA) buffer on ice for 30 min. The cells were washed with 800 µL of 1% BSA/PBS-IFA and fixed with 200 µL of 4% paraformaldehyde in PBS-IFA at room temperature in the dark for 20 min. After washing with 800 µL of 1% BSA/PBS-IFA, cells were permeabilized with 200 µL of 0.2% Triton X-100 in PBS-IFA for 10 min at room temperature in the dark. Subsequently, the cells were washed with 800 µL of 1% BSA/PBS-IFA followed by overnight incubation with 50 µL of primary antibody (1:150 dilution of pan-specific anti-dengue virus E protein antibody HB114 for DENV and 1:2 dilution of anti-flavivirus antibody HB112 for ZIKV). After washing twice with 800 µL of 1% BSA/PBS-IFA, the cells were incubated with 50 µL of a goat anti-mouse IgG conjugated with fluorescein isothiocyanate (FITC; KPL, Guilford, UK) diluted 1:40 with 1% BSA/PBS-IFA at room temperature in the dark for 1 h. The cells were washed twice with 800 µL of 1% BSA/PBS-IFA and resuspended in 100 µL of PBS-IFA. The fluorescence signal was analyzed by flow cytometry on a BD FACalibur cytometer (Becton Dickinson, BD Biosciences, San Jose, CA, USA) using CellQuest™ software (Version 6). All experiments were undertaken independently in triplicate. All raw flow cytometry data plots are provided in Supplementary Figures S13–S19.

A further data set deals with DENV 2. As to the kind of experiment: Percentage of DENV 2 infection of HEK293T/17 cells by flow cytometry. The data set is classed as cell-based, dengue virus. The note with it: HEK293T/17, MOI 5, 10 µM, 24 h; exception to the significant reduction. The method, then: The effects of the compounds on DENV-2 infection were evaluated using HEK293T/17 as host cells at MOI of 5. The cells were infected with DENV 2 for 2 h and then the cells were incubated with the compounds at non-cytotoxic (or morphology altering) concentrations of 10 and 25 μM of ZAD-1 and ZAD-3, or 25 and 50 μM of ZAD-2, or 50 and 75 μM of andrographolide or 0.1% DMSO vehicle control. After 24 h of treatment, cells were harvested for determination of the percentage of infection by flow cytometry, while the culture supernatants were collected to determine the viral production.
HEK293T/17 or A549 cells were cultured in six-well plates under standard conditions until the cells reached 80% confluence. HEK293T/17 cells were infected with DENV 2, while A549 cells were infected with ZIKV Thai strain at MOI 5 for 2 h at 37 °C and 5% CO2 in culture medium without FBS. Mock infection was undertaken in parallel. […]
Mock- or viral-infected cells (with or without compound treatment) were harvested at an appropriate time point then incubated with 10% normal goat serum (NGS; Gibco Invitrogen) in PBS-immunofluorescence assay (IFA) buffer on ice for 30 min. […] The fluorescence signal was analyzed by flow cytometry on a BD FACalibur cytometer (Becton Dickinson, BD Biosciences, San Jose, CA, USA) using CellQuest™ software (Version 6). […]

Take `C=C1CC[C@@H]2[C@](C)(CO)[C@H](O)CC[C@@]2(C)[C@@H]1C/C=C1/C(=O)OC[C@@H]1Oc1ccc([N+](=O)[O-])cc1OC` [ZAD-2]: the CC50 at 24 h in data set [1] is 197 ± 7 µM; in data set [2], 179 ± 13 µM; in data set [3], 218 ± 16 µM; in data set [4], 194 ± 17 µM. The “number of ZIKV-infected cells (percentage of infection)” value in the data set with ZIKV is given as “no significant effects”.
Consider `C=C1CC[C@@H]2[C@](C)(COC(C)=O)[C@H](O)CC[C@@]2(C)[C@@H]1C/C=C1/C(=O)OC[C@H]1Oc1ccc([N+](=O)[O-])cc1OC` [ZAD-3], for which the “percentage of DENV 2 infection” value with DENV 2 was “exception”. In addition, the CC50 at 24 h turned out to be 201 ± 25 µM in data set [1], 186 ± 25 µM in data set [2], 175 ± 7 µM in data set [3] and 190 ± 22 µM in data set [4]. Moreover, the “number of ZIKV-infected cells (percentage of infection)” value with ZIKV was “no significant effects”.
